Like-named read-outs stand apart in the source and are kept apart here.

The target of assay [1] is T1, β2-AR (Homo sapiens, UniProt P07550). To be noted: marker [3H]-(R,R′)-2.
Assay [2] concerns the target T1, β2-AR. The class given is binding.
The subject of assay [3] is isolated rat ventricular myocytes. Kind of assay: cardiomyocyte contractility model. The format is cell-based. As to conditions: initial studies, unpublished data.
Assay [4] concerns 1321N1 astrocytoma cells. Kind of assay: inhibition of proliferation of 1321N1 astrocytoma cells. The format is cell-based. As to conditions: Homo sapiens, 1321-N1, read-out: IC50, proliferation of 1321N1 astrocytoma cells.
Another assay deals with Gs proteins. As to conditions: ref [2]; cited from earlier work.
Assay [5] concerns isolated rat ventricular myocytes. To be noted: cited from earlier work.
The target in assay [6] is β2-AR relative to the β1-AR. To be noted: β2-AR subtype selectivity; ref [3]; cited from earlier work.
Assay [7] concerns 1321N1 astrocytoma cells. As to conditions: read-out: IC50, proliferation of 1321N1 astrocytoma cells; ref [5]; cited from earlier work.

T1 sequence (P07550 whole entry): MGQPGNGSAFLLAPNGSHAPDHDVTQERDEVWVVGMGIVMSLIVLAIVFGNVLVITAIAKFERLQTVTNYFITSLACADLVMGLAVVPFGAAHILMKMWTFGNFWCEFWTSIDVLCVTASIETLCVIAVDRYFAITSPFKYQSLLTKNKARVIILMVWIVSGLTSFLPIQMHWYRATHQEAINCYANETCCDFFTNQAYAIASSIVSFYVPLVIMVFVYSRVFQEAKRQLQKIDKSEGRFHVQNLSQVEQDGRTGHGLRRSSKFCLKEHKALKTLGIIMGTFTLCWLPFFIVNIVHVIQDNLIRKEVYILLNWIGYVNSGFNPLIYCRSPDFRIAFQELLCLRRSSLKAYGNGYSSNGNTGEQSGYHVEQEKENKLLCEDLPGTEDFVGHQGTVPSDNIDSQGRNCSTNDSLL

As for `COc1ccc(C[C@@H](C)NC[C@H](O)c2cc(O)cc(O)c2)c2ccccc12` [(R,R′)-54], at β2-AR [1], the “HS (Hill coefficient), displacement of [3H]-(R,R′)-2” value (shortened to “HS … [3H]-(R,R′)-2”) worked out at 0.86 ± 0.1. The “HS (Hill coefficient), displacement of [3H]-CGP-12177” value (shortened to “HS … [3H]-CGP-12177”) at β2-AR [2] (marker [3H]-CGP-12177) was determined as 1.07 ± 0.09.
Consider `CCC[C@H](Cc1ccc(OC)cc1)NC[C@H](O)c1cc(O)cc(O)c1` [(R,R′)-66, (R,R′)-5-(1-Hydroxy-2-((1-(4-methoxyphenyl)pentan-2-yl)amino)ethyl)benzene-1,3-diol], for which, at β2-AR [1], the “HS … [3H]-(R,R′)-2” value is 1.38 ± 0.32. The “HS … [3H]-CGP-12177” value at β2-AR [2] (marker [3H]-CGP-12177) worked out at 0.90 ± 0.03.
Regarding `COc1ccc(C[C@H](NC[C@H](O)c2cc(O)cc(O)c2)C(C)C)cc1` [(R,R′)-65, (R,R′)-5-(1-Hydroxy-2-((1-(4-methoxyphenyl)-3-methylbutan-2-yl)amino)ethyl)-benzene-1,3-diol], the “HS … [3H]-(R,R′)-2” value on β2-AR [1] was 1.41 ± 0.47.
With `C[C@@H](Cc1ccc(O)cc1)NC[C@H](O)c1cc(O)cc(O)c1` [(R,S′)-1], at β2-AR [1], the “HS … [3H]-(R,R′)-2” value is recorded as 0.97 ± 0.1. The “HS … [3H]-CGP-12177” value at β2-AR [2] (marker [3H]-CGP-12177) is on record as 0.81 ± 0.1.
As to `CC[C@H](Cc1ccc(OC)cc1)NC[C@H](O)c1cc(O)cc(O)c1` [(R,R′)-64, (R,R′)-(−)-5-(1-Hydroxy-2-((1-(4-methoxyphenyl)butan-2-yl)amino)ethyl)benzene-1,3-diol], in assay [3], the “activity in the cardiomyocyte contractility model” value is “no activity”. For the same compound, the IC50 with 1321N1 astrocytoma cells [4] turned out to be 1.5 nM. Moreover, at β2-AR [1], the “HS … [3H]-(R,R′)-2” value came out at 0.82 ± 0.04 and the “decrease in binding affinity compared with (R,R′)-2” value was 10 fold. Further, on β2-AR [2] (marker [3H]-CGP-12177), the “HS … [3H]-CGP-12177” value came out at 1.00 ± 0.11 and the “Ki lower than (R,R′)-52” value worked out at 3 fold. For the same compound, at β2-AR [2] (marker [3H]-CGP-12177, difference between (R,S′)- and (R,R′)-isomers), the “Ki(R,S′)/Ki(R,R′)” value turned out to be 50 fold.
Consider `COc1ccc(C[C@@H](NC[C@H](O)c2cc(O)cc(O)c2)C(C)C)cc1` [(R,S′)-65, (R,S′)-(−)-5-(1-hydroxy-2-((1-(4-methoxyphenyl)-3-methylbutan-2-yl)amino)-ethyl)benzene-1,3-diol], for which the “HS … [3H]-(R,R′)-2” value on β2-AR [1] is given as 1.45 ± 0.56.
With `COc1ccc(C[C@H](C)NC[C@H](O)c2cc(O)cc(O)c2)c2ccccc12` [(R,S′)-54], the “HS … [3H]-(R,R′)-2” value on β2-AR [1] worked out at 0.90 ± 0.2. The “HS … [3H]-CGP-12177” value on β2-AR [2] (marker [3H]-CGP-12177) is given as 1.06 ± 0.02.
For the compound `COc1ccc(C[C@@H](C)NC[C@H](O)c2cc(O)cc(O)c2)cc1` [(R,R′)-2, (R,R′)-4′-methoxyfenoterol], the “G protein coupling” value in the assay with Gs proteins is given as “selectively signaled through Gs proteins”. Further, at β2-AR [1], the “HS … [3H]-(R,R′)-2” value is reported as 0.80 ± 0.9. Also, the “HS … [3H]-CGP-12177” value at β2-AR [2] turned out to be 0.98 ± 0.05.
For the compound `CCC[C@@H](Cc1ccc(OC)cc1)NC[C@H](O)c1cc(O)cc(O)c1` [(R,S′)-66, (R,S′)-5-(1-Hydroxy-2-((1-(4-methoxyphenyl)pentan-2-yl)amino)ethyl)benzene-1,3-diol], the “HS … [3H]-(R,R′)-2” value at β2-AR [1] was found to be 0.89 ± 0.14.
For `COc1ccc(C[C@H](C)NC[C@H](O)c2cc(O)cc(O)c2)cc1` [(R,S′)-2], the “HS … [3H]-(R,R′)-2” value on β2-AR [1] amounted to 1.00 ± 0.05. The “HS … [3H]-CGP-12177” value on β2-AR [2] amounted to 1.01 ± 0.14.
As for `C[C@H](Cc1ccc(O)cc1)NC[C@H](O)c1cc(O)cc(O)c1` [(R,R′)-1, (R,R′)-Fenoterol], the “increase in contractile response” value in assay [5] (isolated rat ventricular myocytes, ref [1],[2]) was 300%. In the assay with Gs proteins, the “G protein coupling” value is on record as “selectively couples to Gs proteins”. The “HS … [3H]-(R,R′)-2” value on β2-AR [1] is 0.76 ± 0.1.
On to `CC[C@@H](Cc1ccc(OC)cc1)NC[C@H](O)c1cc(O)cc(O)c1` [(R,S′)-64, (R,S′)-(+)-5-(1-Hydroxy-2-((1-(4-methoxyphenyl)butan-2-yl)amino)ethyl)benzene-1,3-diol], for which, on β2-AR [1], the “HS … [3H]-(R,R′)-2” value came to 0.86 ± 0.05.
Regarding `COc1ccc(CCNC[C@H](O)c2cc(O)cc(O)c2)cc1` [(R)-67, (R)-(−)-5-(1-Hydroxy-2-((4-methoxyphenethyl)amino)ethyl)benzene-1,3-diol], at β2-AR [1], the “HS … [3H]-(R,R′)-2” value turned out to be 1.59 ± 0.50 and the “Ki lower than (S)-67” value was determined as 10 fold. Also, the “HS … [3H]-CGP-12177” value on β2-AR [2] (marker [3H]-CGP-12177) was 1.80 ± 0.70.
In the case of `CC[C@H](Cc1ccc(O)cc1)NC[C@H](O)c1cc(O)cc(O)c1` [(R,R′)-52], the Kiβ1-AR/Kiβ2-AR in assay [6] is 334. The “stimulation of rat cardiomyocyte contractility” value in assay [5] (ref [3]) was “essentially inactive”. Moreover, the “lower activity in the cardiomyocyte contractility model” value in assay [5] (relative to other tested compounds, ref [3]) was over 100 fold. Moreover, the “HS … [3H]-(R,R′)-2” value at β2-AR [1] came out at 0.93 ± 0.1. Also, the IC50 in the assay with 1321N1 astrocytoma cells [7] was 1.4 nM. For the same compound, the “HS … [3H]-CGP-12177” value on β2-AR [2] (marker [3H]-CGP-12177) is on record as 1.01 ± 0.01.
Regarding `COc1ccc(C[C@@H](C)NC[C@@H](O)c2cc(O)cc(O)c2)cc1` [(S,R′)-2], at β2-AR [1], the “HS … [3H]-(R,R′)-2” value amounted to 0.86 ± 0.13.
Take `COc1ccc(CCNC[C@@H](O)c2cc(O)cc(O)c2)cc1` [(S)-67, (S)-5-(1-Hydroxy-2-((4-methoxyphenethyl)amino)ethyl)benzene-1,3-diol]: on β2-AR [1], the “HS … [3H]-(R,R′)-2” value came to 0.89 ± 0.03.
For the compound `COc1ccc(C[C@H](C)NC[C@@H](O)c2cc(O)cc(O)c2)cc1` [(S,S′)-2], at β2-AR [1], the “HS … [3H]-(R,R′)-2” value was determined as 1.68 ± 0.54. Besides, the “HS … [3H]-CGP-12177” value at β2-AR [2] was determined as 2.30 ± 0.32.
Turning to `CC[C@@H](Cc1ccc(O)cc1)NC[C@H](O)c1cc(O)cc(O)c1` [(R,S′)-52], on β2-AR [1], the “HS … [3H]-(R,R′)-2” value is listed as 0.87 ± 0.2. Besides, the “HS … [3H]-CGP-12177” value at β2-AR [2] (marker [3H]-CGP-12177) is given as 2.07 ± 0.4.

Values taken from PMC3908673 (Bioorganic & medicinal chemistry, 2013).
